Data: PubChem BioAssay AID248 (DTP/NCI, 2004)
“And” between values parts separate entries of the source, which are not always exact repeats. Equal values may be shown once. Inconclusive results and toxic doses are left out. Cut-off read from the data, not from the text of the source: active = T/C of 150% or more; inactive = T/C below 125%.

System: L1210 leukemia ip in BDF1 mice, survival T/C
Assay: NCI In Vivo Anticancer Drug Screen. Data for tumor model L1210 Leukemia (intraperitoneal) in B6D2F1 (BDF1) mice
Conditions: endpoint: mean survival time, higher = longer survival
Summary of the method: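 Each compound was tested against a transplantable tumor grown in mice. The endpoint was survival, with treated animals benchmarked against vehicle controls as a simple ratio.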

[1] = dose: 100.0 mg/kg/injection, schedule: Q01DX009 (ip), vehicle: Klucel (hydroxypropylcellulose) (HPC)
[2] = dose: 100.0 mg/kg/injection, schedule: Q04DX003 (ip), vehicle: Klucel (hydroxypropylcellulose) (HPC)
[3] = dose: 200.0 mg/kg/injection, schedule: Q01DX009 (ip), vehicle: Klucel (hydroxypropylcellulose) (HPC)
[4] = dose: 200.0 mg/kg/injection, schedule: Q04DX003 (ip), vehicle: Klucel (hydroxypropylcellulose) (HPC)
[5] = dose: 400.0 mg/kg/injection, schedule: Q04DX003 (ip), vehicle: Klucel (hydroxypropylcellulose) (HPC)
[6] = dose: 100.0 mg/kg/injection, schedule: Q04DX002 (ip), vehicle: saline
[7] = dose: 50.0 mg/kg/injection, schedule: Q01DX009 (ip), vehicle: Klucel (hydroxypropylcellulose) (HPC)
[8] = dose: 400.0 mg/kg/injection, schedule: Q01DX009 (ip), vehicle: Klucel (hydroxypropylcellulose) (HPC)
[9] = dose: 100.0 mg/kg/injection, schedule: Q04DX002 (ip), vehicle: Klucel (hydroxypropylcellulose) (HPC)
[10] = dose: 100.0 mg/kg/injection, schedule: Q01DX009 (ip), vehicle: saline with Tween-80
[11] = dose: 100.0 mg/kg/injection, schedule: Q04DX003 (ip), vehicle: saline
[12] = dose: 100.0 mg/kg/injection, schedule: Q01DX001 (ip), vehicle: saline
[13] = dose: 200.0 mg/kg/injection, schedule: Q01DX001 (ip), vehicle: saline
[14] = dose: 400.0 mg/kg/injection, schedule: Q01DX001 (ip), vehicle: saline

Measured: T/C

O=C(Nc1ccc([N+](=O)[O-])cc1Cl)Oc1ccc2ccccc2c1
inactive: [1] 92 % of control | [2] 100 % of control | [3] 87 % of control | [4] 97 % of control | [5] 100 % of control

CNCCCC(CO)NS(=O)(=O)c1ccc(C)cc1 (stereo not drawn)
inactive: dose: 100.0 mg/kg/injection, schedule: Q01DX001 (ip), vehicle: water 94 % of control | dose: 100.0 mg/kg/injection, schedule: Q04DX003 (ip), vehicle: water 92 % of control | dose: 200.0 mg/kg/injection, schedule: Q01DX001 (ip), vehicle: water 97 % of control | dose: 200.0 mg/kg/injection, schedule: Q04DX003 (ip), vehicle: water 100 % of control | dose: 400.0 mg/kg/injection, schedule: Q01DX001 (ip), vehicle: water 97 % of control | dose: 400.0 mg/kg/injection, schedule: Q04DX003 (ip), vehicle: water 87 % of control

O=S(=O)(O)c1ccc(CCCCCCCl)cc1
inactive: [6] 93 % of control | dose: 200.0 mg/kg/injection, schedule: Q04DX002 (ip), vehicle: saline 87 % of control

O=P(NCCCl)(Nc1ccccc1)Nc1ccccc1
inactive: [7] 112 % of control | [1] 108 % of control | [2] 90 % of control | [3] 108 % of control

CCCCCCCCCCCCn1cnc2c(=S)nc[nH]c21
inactive: dose: 12.5 mg/kg/injection, schedule: Q01DX005 (ip), vehicle: other 106 % of control | dose: 25.0 mg/kg/injection, schedule: Q01DX005 (ip), vehicle: other 101 % of control | dose: 50.0 mg/kg/injection, schedule: Q01DX005 (ip), vehicle: other 100 % of control | dose: 100.0 mg/kg/injection, schedule: Q01DX005 (ip), vehicle: other 106 % of control | dose: 200.0 mg/kg/injection, schedule: Q01DX005 (ip), vehicle: other 89 % of control

O=S(=O)(Nc1cccc2ccccc12)c1ccc(Cl)cc1
inactive: [1] 102 % of control | [3] 87 % of control | [8] 95 % of control

C[N+](C)(CCN1C(=O)c2ccc3c4c(ccc(c24)C1=O)C(=O)N(CC[N+](C)(C)Cc1ccccc1)C3=O)Cc1ccccc1
inactive: dose: 0.1 mg/kg/injection, schedule: Q01DX001 (ip), vehicle: saline 105 % of control | dose: 0.2 mg/kg/injection, schedule: Q01DX001 (ip), vehicle: saline 101 % of control | dose: 0.4 mg/kg/injection, schedule: Q01DX001 (ip), vehicle: saline 110 % of control | dose: 0.78 mg/kg/injection, schedule: Q01DX001 (ip), vehicle: saline 106 % of control

C=C1c2ccccc2N(CC)C1(COc1ccc(Cl)cc1)OC(=O)c1cccc(Cl)c1 (stereo not drawn)
inactive: [9] 100 % of control | dose: 200.0 mg/kg/injection, schedule: Q04DX002 (ip), vehicle: Klucel (hydroxypropylcellulose) (HPC) 95 % of control | dose: 400.0 mg/kg/injection, schedule: Q04DX002 (ip), vehicle: Klucel (hydroxypropylcellulose) (HPC) 110 % of control

C[Si](C)(C)c1cc(F)c(F)c(F)c1F
inactive: [1] 100 % of control | [2] 97 % of control | [3] 102 % of control | [4] 102 % of control | [8] 98 % of control | [5] 103 % of control

CC(=O)Oc1ccccc1C(C)=O
inactive: [1] 97 % of control | [2] 96 % of control | [3] 97 % of control | [4] 98 % of control | [5] 104 % of control

O=C(Nc1ccc(Br)cc1)Oc1ccccc1C(=O)Nc1ccccc1
inactive: [1] 98 % of control | [3] 98 % of control | [8] 88 % of control

CCCCCCCCC/C(C)=N\N=C(N)N
inactive: dose: 8.0 mg/kg/injection, schedule: Q01DX Z (oral), vehicle: methylcellulose (MC) 91 % of control | dose: 15.0 mg/kg/injection, schedule: Q01DX Z (ip), vehicle: methylcellulose (MC) 90 % of control | dose: 15.0 mg/kg/injection, schedule: Q01DX Z (oral), vehicle: methylcellulose (MC) 87 % of control | dose: 30.0 mg/kg/injection, schedule: Q01DX Z (oral), vehicle: methylcellulose (MC) 96 % of control | dose: 60.0 mg/kg/injection, schedule: Q01DX Z (oral), vehicle: methylcellulose (MC) 96 % of control | dose: 120.0 mg/kg/injection, schedule: Q01DX Z (oral), vehicle: methylcellulose (MC) 101 % of control

NC(=O)C1(Cl)CC2C=CC1C2 (stereo not drawn)
inactive: dose: 25.0 mg/kg/injection, schedule: Q01DX009 (ip), vehicle: saline with Tween-80 90 % of control | dose: 25.0 mg/kg/injection, schedule: Q04DX003 (ip), vehicle: saline 100 % of control | dose: 50.0 mg/kg/injection, schedule: Q01DX009 (ip), vehicle: saline with Tween-80 95 % of control | dose: 50.0 mg/kg/injection, schedule: Q04DX003 (ip), vehicle: saline 99 % of control | [10] 97 % of control | [11] 110 % of control

O=C(NO)c1cc(Cl)c(C(=O)NO)cc1Cl
inactive: dose: 100.0 mg/kg/injection, schedule: Q01DX009 (ip), vehicle: other 93 % of control | [11] 102 % of control | dose: 200.0 mg/kg/injection, schedule: Q01DX009 (ip), vehicle: other 95 % of control | dose: 200.0 mg/kg/injection, schedule: Q04DX003 (ip), vehicle: saline 102 % of control | dose: 400.0 mg/kg/injection, schedule: Q04DX003 (ip), vehicle: saline 97 % of control

CCCCCCCCCCCCCC(C)C
inactive: [12] 96 % of control | [13] 102 % of control | [14] 94 % of control

O=c1c2[nH]c3cccc(Cl)c3c2cnn1-c1ccc(F)cc1
inactive: dose: 100.0 mg/kg/injection, schedule: Q01DX001 (ip), vehicle: Klucel (hydroxypropylcellulose) (HPC) 96 % of control | dose: 200.0 mg/kg/injection, schedule: Q01DX001 (ip), vehicle: Klucel (hydroxypropylcellulose) (HPC) 104 % of control | dose: 400.0 mg/kg/injection, schedule: Q01DX001 (ip), vehicle: Klucel (hydroxypropylcellulose) (HPC) 104 % of control

CCOC(=O)c1ccc(NCc2nc3nc(N)nc(N)c3[nH]2)cc1
inactive: dose: 75.0 mg/kg/injection, schedule: Q01DX001 (ip), vehicle: other 102 % of control | dose: 150.0 mg/kg/injection, schedule: Q01DX001 (ip), vehicle: other 97 % of control | dose: 300.0 mg/kg/injection, schedule: Q01DX001 (ip), vehicle: other 97 % of control

O=C(O)c1ccccc1C(=O)c1ccc(Br)cc1
inactive: [2] 93 % of control | [4] 96 % of control | [5] 104 % of control

COc1ccc(NC(=S)Nc2ccccc2S)cc1
inactive: [10] 90 % of control | dose: 100.0 mg/kg/injection, schedule: Q04DX002 (ip), vehicle: saline with Tween-80 97 % of control | dose: 200.0 mg/kg/injection, schedule: Q01DX009 (ip), vehicle: saline with Tween-80 97 % of control | dose: 200.0 mg/kg/injection, schedule: Q04DX002 (ip), vehicle: saline with Tween-80 97 % of control | dose: 400.0 mg/kg/injection, schedule: Q04DX002 (ip), vehicle: saline with Tween-80 97 % of control

CC(N)C(=O)NC(CC(=O)O)C(=O)O (stereo not drawn)
inactive: dose: 25.0 mg/kg/injection, schedule: Q04DX002 (ip), vehicle: saline 98 % of control | dose: 50.0 mg/kg/injection, schedule: Q04DX002 (ip), vehicle: saline 94 % of control | [6] 94 % of control

CC1(C(Cl)(Cl)Cl)C=CC(O)C=C1 (stereo not drawn)
inactive: dose: 25.0 mg/kg/injection, schedule: Q01DX009 (ip), vehicle: Klucel (hydroxypropylcellulose) (HPC) 90 % of control | dose: 25.0 mg/kg/injection, schedule: Q04DX002 (ip), vehicle: Klucel (hydroxypropylcellulose) (HPC) 87 % of control | [7] 93 % of control | dose: 50.0 mg/kg/injection, schedule: Q04DX002 (ip), vehicle: Klucel (hydroxypropylcellulose) (HPC) 93 % of control | [1] 97 % of control and 90 % of control | [9] 97 % of control and 89 % of control | dose: 150.0 mg/kg/injection, schedule: Q01DX009 (ip), vehicle: Klucel (hydroxypropylcellulose) (HPC) 93 % of control

CC(C)(c1ccc(OCC2CO2)cc1)c1ccc(OCC2CO2)cc1 (stereo not drawn)
inactive: [12] 101 % of control | [13] 109 % of control | [14] 96 % of control
